# Tests used:
# [1] = test system: wild buckwheat; experiment: Test B preemergence/postemergence greenhouse plant response rating 0 to 10; type: in vivo, Polygonum convolvulus; details: 0 to 10 scale
# Outline: (§1)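 Planted seeds are treated preemergence with compound dissolved in a non-phytotoxic solvent, while postemergence applications go onto plants of two to eighteen cm. Plants stay in the greenhouse twelve to sixteen days and are then rated visually relative to controls.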
# [2] = test system: cocklebur; experiment: as above; type: in vivo, Xanthium pensylvanicum; details: for Plant response rating, Cocklebur: 0 to 10 scale
# Outline: as §1
# [3] = test system: giant foxtail; experiment: Test C preemergence/postemergence greenhouse plant response rating 0 to 100; type: in vivo, Setaria faberii; details: POSTEMERGENCE; for Plant response rating, Giant foxtail: 0 to 100 scale
# Outline: (§2)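 Compounds in non-phytotoxic solvent applied preemergence to sandy loam one day after planting, postemergence at the 1–4 leaf stage, or to ~2.5 cm floodwater over silt loam.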
# [4] = test system: chickweed; experiment: as above; type: in vivo, Stellaria media; details: POSTEMERGENCE; for Plant response rating, Chickweed: 0 to 100 scale
# Outline: as §2
# [5] = test system: wild oat; experiment: Test B preemergence/postemergence greenhouse plant response rating 0 to 10; type: in vivo, Avena fatua; details: POSTEMERGENCE, 0 to 10 scale
# Outline: as §1
# [6] = test system: soybean; experiment: Test C preemergence/postemergence greenhouse plant response rating 0 to 100; type: in vivo, Glycine max; details: POSTEMERGENCE; for Plant response rating, Soybean: 0 to 100 scale
# Outline: as §2
# [7] = test system: rape; experiment: as above; type: in vivo, Brassica napus; details: POSTEMERGENCE; for Plant response rating, Rape: 0 to 100 scale
# Outline: as §2
# [8] = test system: giant foxtail; experiment: Test B preemergence/postemergence greenhouse plant response rating 0 to 10; type: in vivo, Setaria faberii; details: 0 to 10 scale
# Outline: as §1
# [9] = test system: downy brome; experiment: Test C preemergence/postemergence greenhouse plant response rating 0 to 100; type: in vivo, Bromus tectorum; details: POSTEMERGENCE; for Plant response rating Downy Brome: 0 to 100 scale
# Outline: as §2
# [10] = test system: wild oat; experiment: as above; type: in vivo, Avena fatua; details: POSTEMERGENCE; for Plant response rating, Wild oat: 0 to 100 scale
# Outline: as §2
# [11] = test system: cotton; experiment: as above; type: in vivo, Gossypium hirsutum; details: POSTEMERGENCE; for Plant response rating, Cotton: 0 to 100 scale
# Outline: as §2
# [12] = test system: purple nutsedge; experiment: Test B preemergence/postemergence greenhouse plant response rating 0 to 10; type: in vivo, Cyperus rotundus; details: 0 to 10 scale
# Outline: as §1
# [13] = test system: lambsquarters; experiment: as above; type: in vivo, Chenopodium album; details: 0 to 10 scale
# Outline: as §1
# [14] = test system: rice; experiment: Test C flood test plant response rating 0 to 100; type: in vivo, Oryza sativa; details: for Plant response rating Rice Japonica: flood test species listed under POSTEMERGENCE, 0 to 100 scale
# Outline: as §2
# [15] = test system: crabgrass; experiment: Test B preemergence/postemergence greenhouse plant response rating 0 to 10; type: in vivo, Digitaria spp.; details: for Plant response rating, Crabgrass: 0 to 10 scale
# Outline: as §1
# [16] = test system: barnyardgrass; experiment: as above; type: in vivo, Echinochloa crus-galli; details: for Plant response rating, Barnyardgrass: 0 to 10 scale
# Outline: as §1
# [17] = test system: barnyardgrass; experiment: Test C flood test plant response rating 0 to 100; type: in vivo, Echinochloa crus-galli; details: for Plant response rating (0 to 100), Barnyardgrass: under POSTEMERGENCE head (flood test species); for Plant response rating, Barnyardgrass: flood test species listed under POSTEMERGENCE, 0 to 100 scale
# Outline: as §2
# [18] = test system: umbrella sedge; experiment: Test C flood test plant response rating 0 to 100; type: in vivo, Cyperus difformis; details: for Plant response rating Umbrella sedge: flood test species listed under POSTEMERGENCE, 0 to 100 scale
# Outline: as §2
# [19] = POSTEMERGENCE section, flood test, Rate 4 g/ha
# [20] = Rate 16 g/ha, under POSTEMERGENCE head (flood test species)
compound,measurement,setting,value
COc1cc(-c2nn3c(c2Cl)CCCC3)c(F)cc1Cl [Compound 29],"Plant response rating, Wild buckwheat","[1]; POSTEMERGENCE, Rate 50 g/ha",10
same,"Plant response rating, Wild buckwheat","[1]; PREEMERGENCE, Rate 50 g/ha",8
same,"Plant response rating, Wild buckwheat","[1]; Rate 200 g/ha, POSTEMERGENCE",10
same,"Plant response rating, Wild buckwheat","[1]; Rate 200 g/ha, PREEMERGENCE",10
same,"Plant response rating (0 to 10 scale), Cocklebur","[2]; POSTEMERGENCE, Rate 50 g/ha",6
same,"Plant response rating, Cocklebur","[2]; POSTEMERGENCE, Rate 200 g/ha",10
same,"Plant response rating, Cocklebur","[2]; PREEMERGENCE, Rate 50 g/ha",2
same,"Plant response rating, Cocklebur","[2]; Rate 200 g/ha, PREEMERGENCE",4
same,"Plant response rating, Giant foxtail",[3]; 62 g/ha,70
same,"Plant response rating, Giant foxtail",[3]; 250 g/ha,100
same,"Plant response rating (0 to 100), Giant foxtail",[3]; Rate 4 g/ha,0
same,"Plant response rating (0 to 100), Giant foxtail",[3]; Rate 16 g/ha,20
same,"Plant response rating, Chickweed",[4]; 62 g/ha,60
same,"Plant response rating, Chickweed",[4]; 250 g/ha,95
same,"Plant response rating (0 to 100), Chickweed",[4]; Rate 4 g/ha,10
same,"Plant response rating (0 to 100), Chickweed",[4]; Rate 16 g/ha,40
same,"Plant response rating, Wild oat",[5]; Rate 50 g/ha,5
same,"Plant response rating, Wild oat",[5]; Rate 200 g/ha,7
same,"Plant response rating, Soybean",[6]; 62 g/ha,60
same,"Plant response rating, Soybean",[6]; 250 g/ha,100
same,"Plant response rating (0 to 100), Soybean",[6]; Rate 4 g/ha,10
same,"Plant response rating (0 to 100), Soybean",[6]; Rate 16 g/ha,50
same,"Plant response rating, Rape",[7]; 62 g/ha,100
same,"Plant response rating, Rape",[7]; 250 g/ha,100
same,"Plant response rating (0 to 100), Rape",[7]; Rate 4 g/ha,90
same,"Plant response rating (0 to 100), Rape",[7]; Rate 16 g/ha,100
same,"Plant response rating, Giant foxtail","[8]; POSTEMERGENCE, Rate 50 g/ha",3
same,"Plant response rating, Giant foxtail","[8]; PREEMERGENCE, Rate 50 g/ha",8
same,"Plant response rating, Giant foxtail","[8]; Rate 200 g/ha, POSTEMERGENCE",6
same,"Plant response rating, Giant foxtail","[8]; Rate 200 g/ha, PREEMERGENCE",9
same,Plant response rating Downy Brome,[9]; 62 g/ha,80
same,Plant response rating Downy Brome,[9]; 250 g/ha,95
same,"Plant response rating (0 to 100), Downy Brome",[9]; Rate 4 g/ha,20
same,"Plant response rating (0 to 100), Downy Brome",[9]; Rate 16 g/ha,60
same,"Plant response rating, Wild oat",[10]; 62 g/ha,60
same,"Plant response rating, Wild oat",[10]; 250 g/ha,90
same,"Plant response rating (0 to 100), Wild oat",[10]; Rate 4 g/ha,20
same,"Plant response rating (0 to 100), Wild oat",[10]; Rate 16 g/ha,40
same,"Plant response rating, Cotton",[11]; 62 g/ha,100
same,"Plant response rating, Cotton",[11]; 250 g/ha,100
same,"Plant response rating (0 to 100), Cotton",[11]; Rate 4 g/ha,100
same,"Plant response rating (0 to 100), Cotton",[11]; Rate 16 g/ha,100
same,"Plant response rating, Nutsedge","[12]; POSTEMERGENCE, Rate 50 g/ha",4
same,"Plant response rating, Nutsedge","[12]; PREEMERGENCE, Rate 50 g/ha",0
same,"Plant response rating, Nutsedge","[12]; Rate 200 g/ha, POSTEMERGENCE",4
same,"Plant response rating, Nutsedge","[12]; Rate 200 g/ha, PREEMERGENCE",0
same,"Plant response rating, Lambsquarter","[13]; POSTEMERGENCE, Rate 50 g/ha",10
same,"Plant response rating, Lambsquarter","[13]; PREEMERGENCE, Rate 50 g/ha",10
same,"Plant response rating, Lambsquarter","[13]; Rate 200 g/ha, POSTEMERGENCE",10
same,"Plant response rating, Lambsquarter","[13]; Rate 200 g/ha, PREEMERGENCE",10
same,"Plant response rating (0 to 100), Rice Japonica",[14]; [19],30
same,"Plant response rating (0 to 100), Rice Japonica",[14]; [20],65
same,Plant response rating Rice Japonica,[14]; 62 g/ha,70
same,Plant response rating Rice Japonica,[14]; 250 g/ha,90
same,"Plant response rating (0 to 10 scale), Crabgrass","[15]; POSTEMERGENCE, Rate 50 g/ha",4
same,"Plant response rating, Crabgrass","[15]; POSTEMERGENCE, Rate 200 g/ha",5
same,"Plant response rating, Crabgrass","[15]; PREEMERGENCE, Rate 50 g/ha",8
same,"Plant response rating, Crabgrass","[15]; Rate 200 g/ha, PREEMERGENCE",9
same,"Plant response rating (0 to 10 scale), Barnyardgrass","[16]; POSTEMERGENCE, Rate 50 g/ha",8
same,"Plant response rating, Barnyardgrass","[16]; POSTEMERGENCE, Rate 200 g/ha",10
same,"Plant response rating, Barnyardgrass","[16]; PREEMERGENCE, Rate 50 g/ha",4
same,"Plant response rating, Barnyardgrass","[16]; Rate 200 g/ha, PREEMERGENCE",8
same,"Plant response rating (0 to 100), Barnyardgrass",[17]; Rate 4 g/ha,100
same,"Plant response rating (0 to 100), Barnyardgrass",[17]; Rate 16 g/ha,100
same,"Plant response rating, Barnyardgrass",[17]; 62 g/ha,100
same,"Plant response rating, Barnyardgrass",[17]; 250 g/ha,100
same,"Plant response rating (0 to 100), Umbrella sedge",[18]; [19],20
same,"Plant response rating (0 to 100), Umbrella sedge",[18]; [20],30
same,Plant response rating Umbrella sedge,[18]; 62 g/ha,90
same,Plant response rating Umbrella sedge,[18]; 250 g/ha,95

# From patent publication US6358885B1, “Substituted phenylheterocyclic herbicides” (Mississippi State University, priority 1992, dated 2002)
